{"source": "ChEMBL document CHEMBL3046287", "about": "“Azoxystrobin resistance of French Mycosphaerella graminicola strains assessed by four in vitro bioassays and by screening of G143A substitution” (Crop Prot, 2010)", "type_in_all_cases": "functional, organism-based", "key": {"Zymoseptoria tritici [1]": {"system": "Zymoseptoria tritici", "assay": "Antifungal activity against azoxystrobin-resistant Zymoseptoria tritici T032 carrying cytochrome-b A143 allele assessed as inhibition of spore germination after 2 days at 18 degC by spotting on PDA medium assay", "conditions": "T032, 48 h"}, "Zymoseptoria tritici [2]": {"system": "Zymoseptoria tritici", "assay": "Antifungal activity against azoxystrobin-sensitive Zymoseptoria tritici T0464 carrying cytochrome-b G143 allele assessed as fungal growth inhibition after 6 days at 20 degC by microplate without alamar blue assay", "conditions": "T0464, 144 h"}, "Zymoseptoria tritici [3]": {"system": "Zymoseptoria tritici", "assay": "Antifungal activity against azoxystrobin-sensitive Zymoseptoria tritici T0214 carrying cytochrome-b G143 allele assessed as fungal growth inhibition after 6 days at 20 degC by microplate without alamar blue assay", "conditions": "T0214, 144 h"}, "Zymoseptoria tritici [4]": {"system": "Zymoseptoria tritici", "assay": "Antifungal activity against azoxystrobin-sensitive Zymoseptoria tritici T0384 carrying cytochrome-b G143 allele assessed as inhibition of spore germination after 2 days at 18 degC by spotting on PDA medium assay", "conditions": "T0384, 48 h"}, "Zymoseptoria tritici [5]": {"system": "Zymoseptoria tritici", "assay": "Antifungal activity against azoxystrobin-sensitive Zymoseptoria tritici T0148 carrying cytochrome-b G143 allele assessed as inhibition of spore germination after 2 days at 18 degC by spotting on PDA medium assay", "conditions": "T0148, 48 h"}, "Zymoseptoria tritici [6]": {"system": "Zymoseptoria tritici", "assay": "Antifungal activity against azoxystrobin-sensitive Zymoseptoria tritici T021 carrying cytochrome-b G143 allele assessed as inhibition of spore germination after 2 days at 18 degC by spotting on PDA medium assay", "conditions": "T021, 48 h"}, "Zymoseptoria tritici [7]": {"system": "Zymoseptoria tritici", "assay": "Antifungal activity against azoxystrobin-resistant Zymoseptoria tritici T0262 carrying cytochrome-b A143 allele assessed as inhibition of spore germination after 2 days at 18 degC by spotting on PDA medium assay", "conditions": "T0262, 48 h"}, "Zymoseptoria tritici [8]": {"system": "Zymoseptoria tritici", "assay": "Antifungal activity against azoxystrobin-resistant Zymoseptoria tritici T0254 carrying cytochrome-b A143 allele assessed as inhibition of spore germination after 2 days at 18 degC by spotting on PDA medium assay", "conditions": "T0254, 48 h"}, "Zymoseptoria tritici [9]": {"system": "Zymoseptoria tritici", "assay": "Antifungal activity against azoxystrobin-resistant Zymoseptoria tritici T0293 carrying cytochrome-b A143 allele assessed as inhibition of spore germination after 2 days at 18 degC by spotting on PDA medium assay", "conditions": "T0293, 48 h"}, "Zymoseptoria tritici [10]": {"system": "Zymoseptoria tritici", "assay": "Antifungal activity against azoxystrobin-resistant Zymoseptoria tritici T049 carrying cytochrome-b A143 allele assessed as inhibition of spore germination after 2 days at 18 degC by spotting on PDA medium assay", "conditions": "T049, 48 h"}, "Zymoseptoria tritici [11]": {"system": "Zymoseptoria tritici", "assay": "Antifungal activity against azoxystrobin-resistant Zymoseptoria tritici T0414 carrying cytochrome-b A143 allele assessed as inhibition of spore germination after 2 days at 18 degC by spotting on PDA medium assay", "conditions": "T0414, 48 h"}, "Zymoseptoria tritici [12]": {"system": "Zymoseptoria tritici", "assay": "Antifungal activity against azoxystrobin-sensitive Zymoseptoria tritici T083 carrying cytochrome-b G143 allele assessed as fungal colony perpendicular diameter changes after 10 days at 18 degC by spotting on PDA medium assay", "conditions": "T083, 240 h"}, "Zymoseptoria tritici [13]": {"system": "Zymoseptoria tritici", "assay": "Antifungal activity against azoxystrobin-resistant Zymoseptoria tritici T0262 carrying cytochrome-b A143 allele assessed as fungal colony perpendicular diameter changes after 10 days at 18 degC by spotting on PDA medium assay", "conditions": "T0262, 240 h"}, "Zymoseptoria tritici [14]": {"system": "Zymoseptoria tritici", "assay": "Antifungal activity against azoxystrobin-resistant Zymoseptoria tritici T0242 carrying cytochrome-b A143 allele assessed as fungal colony perpendicular diameter changes after 10 days at 18 degC by spotting on PDA medium assay", "conditions": "T0242, 240 h"}, "Zymoseptoria tritici [15]": {"system": "Zymoseptoria tritici", "assay": "Antifungal activity against azoxystrobin-resistant Zymoseptoria tritici T0293 carrying cytochrome-b A143 allele assessed as fungal colony perpendicular diameter changes after 10 days at 18 degC by spotting on PDA medium assay", "conditions": "T0293, 240 h"}, "Zymoseptoria tritici [16]": {"system": "Zymoseptoria tritici", "assay": "Antifungal activity against azoxystrobin-sensitive Zymoseptoria tritici T021 carrying cytochrome-b G143 allele assessed as fungal colony perpendicular diameter changes after 10 days at 18 degC by spotting on PDA medium assay", "conditions": "T021, 240 h"}, "Zymoseptoria tritici [17]": {"system": "Zymoseptoria tritici", "assay": "Antifungal activity against azoxystrobin-resistant Zymoseptoria tritici T0251 carrying cytochrome-b A143 allele assessed as fungal colony perpendicular diameter changes after 10 days at 18 degC by spotting on PDA medium assay", "conditions": "T0251, 240 h"}, "Zymoseptoria tritici [18]": {"system": "Zymoseptoria tritici", "assay": "Antifungal activity against azoxystrobin-resistant Zymoseptoria tritici T0345 carrying cytochrome-b A143 allele assessed as fungal colony perpendicular diameter changes after 10 days at 18 degC by spotting on PDA medium assay", "conditions": "T0345, 240 h"}, "Zymoseptoria tritici [19]": {"system": "Zymoseptoria tritici", "assay": "Antifungal activity against azoxystrobin-sensitive Zymoseptoria tritici T0466 carrying cytochrome-b G143 allele assessed as inhibition of spore germination after 2 days at 18 degC by spotting on PDA medium assay", "conditions": "T0466, 48 h"}, "Zymoseptoria tritici [20]": {"system": "Zymoseptoria tritici", "assay": "Antifungal activity against azoxystrobin-sensitive Zymoseptoria tritici T0209 carrying cytochrome-b G143 allele assessed as inhibition of spore germination after 2 days at 18 degC by spotting on PDA medium assay", "conditions": "T0209, 48 h"}, "Zymoseptoria tritici [21]": {"system": "Zymoseptoria tritici", "assay": "Antifungal activity against azoxystrobin-sensitive Zymoseptoria tritici T0211 carrying cytochrome-b G143 allele assessed as inhibition of spore germination after 2 days at 18 degC by spotting on PDA medium assay", "conditions": "T0211, 48 h"}, "Zymoseptoria tritici [22]": {"system": "Zymoseptoria tritici", "assay": "Antifungal activity against azoxystrobin-sensitive Zymoseptoria tritici T0460 carrying cytochrome-b G143 allele assessed as inhibition of spore germination after 2 days at 18 degC by spotting on PDA medium assay", "conditions": "T0460, 48 h"}, "Zymoseptoria tritici [23]": {"system": "Zymoseptoria tritici", "assay": "Antifungal activity against azoxystrobin-sensitive Zymoseptoria tritici T0471 carrying cytochrome-b G143 allele assessed as inhibition of spore germination after 2 days at 18 degC by spotting on PDA medium assay", "conditions": "T0471, 48 h"}, "Zymoseptoria tritici [24]": {"system": "Zymoseptoria tritici", "assay": "Antifungal activity against azoxystrobin-sensitive Zymoseptoria tritici IPO94269 carrying cytochrome-b G143 allele assessed as fungal growth inhibition after 6 days at 20 degC by microplate without alamar blue assay", "conditions": "IPO94269, 144 h"}, "Zymoseptoria tritici [25]": {"system": "Zymoseptoria tritici", "assay": "Antifungal activity against azoxystrobin-sensitive Zymoseptoria tritici T0213 carrying cytochrome-b G143 allele assessed as fungal growth inhibition after 6 days at 20 degC by microplate without alamar blue assay", "conditions": "T0213, 144 h"}, "Zymoseptoria tritici [26]": {"system": "Zymoseptoria tritici", "assay": "Antifungal activity against azoxystrobin-sensitive Zymoseptoria tritici T0464 carrying cytochrome-b G143 allele assessed as fungal colony perpendicular diameter changes after 10 days at 18 degC by spotting on PDA medium assay", "conditions": "T0464, 240 h"}, "Zymoseptoria tritici [27]": {"system": "Zymoseptoria tritici", "assay": "Antifungal activity against azoxystrobin-sensitive Zymoseptoria tritici T0466 carrying cytochrome-b G143 allele assessed as fungal colony perpendicular diameter changes after 10 days at 18 degC by spotting on PDA medium assay", "conditions": "T0466, 240 h"}, "Zymoseptoria tritici [28]": {"system": "Zymoseptoria tritici", "assay": "Antifungal activity against azoxystrobin-sensitive Zymoseptoria tritici T0211 carrying cytochrome-b G143 allele assessed as fungal colony perpendicular diameter changes after 10 days at 18 degC by spotting on PDA medium assay", "conditions": "T0211, 240 h"}, "Zymoseptoria tritici [29]": {"system": "Zymoseptoria tritici", "assay": "Antifungal activity against azoxystrobin-sensitive Zymoseptoria tritici T0460 carrying cytochrome-b G143 allele assessed as fungal colony perpendicular diameter changes after 10 days at 18 degC by spotting on PDA medium assay", "conditions": "T0460, 240 h"}, "Zymoseptoria tritici [30]": {"system": "Zymoseptoria tritici", "assay": "Antifungal activity against azoxystrobin-sensitive Zymoseptoria tritici T0209 carrying cytochrome-b G143 allele assessed as fungal colony perpendicular diameter changes after 10 days at 18 degC by spotting on PDA medium assay", "conditions": "T0209, 240 h"}}}
{"smiles": "CO/C=C(/C(=O)OC)c1ccccc1Oc1cc(Oc2ccccc2C#N)ncn1", "note": "[AZOXYSTROBIN]", "values": [{"measurement": "IC50", "setting": "Zymoseptoria tritici [1]", "value": 11.6, "unit": "µg/mL"}, {"measurement": "IC50", "setting": "Zymoseptoria tritici [2]", "value": "< 0.01", "unit": "µg/mL"}, {"measurement": "IC50", "setting": "Zymoseptoria tritici [3]", "value": 0.02, "unit": "µg/mL"}, {"measurement": "IC50", "setting": "Zymoseptoria tritici [4]", "value": 0.76, "unit": "µg/mL"}, {"measurement": "IC50", "setting": "Zymoseptoria tritici [5]", "value": 0.08, "unit": "µg/mL"}, {"measurement": "IC50", "setting": "Zymoseptoria tritici [6]", "value": 0.21, "unit": "µg/mL"}, {"measurement": "IC50", "setting": "Zymoseptoria tritici [7]", "value": "> 100", "unit": "µg/mL"}, {"measurement": "IC50", "setting": "Zymoseptoria tritici [8]", "value": 7.17, "unit": "µg/mL"}, {"measurement": "IC50", "setting": "Zymoseptoria tritici [9]", "value": 11.4, "unit": "µg/mL"}, {"measurement": "IC50", "setting": "Zymoseptoria tritici [10]", "value": 11.6, "unit": "µg/mL"}, {"measurement": "IC50", "setting": "Zymoseptoria tritici [11]", "value": 16.2, "unit": "µg/mL"}, {"measurement": "IC50", "setting": "Zymoseptoria tritici [12]", "value": 0.22, "unit": "µg/mL"}, {"measurement": "IC50", "setting": "Zymoseptoria tritici [13]", "value": 9.91, "unit": "µg/mL"}, {"measurement": "IC50", "setting": "Zymoseptoria tritici [14]", "value": 12, "unit": "µg/mL"}, {"measurement": "IC50", "setting": "Zymoseptoria tritici [15]", "value": 10.2, "unit": "µg/mL"}, {"measurement": "IC50", "setting": "Zymoseptoria tritici [16]", "value": 0.11, "unit": "µg/mL"}, {"measurement": "IC50", "setting": "Zymoseptoria tritici [17]", "value": 15.3, "unit": "µg/mL"}, {"measurement": "IC50", "setting": "Zymoseptoria tritici [18]", "value": "> 100", "unit": "µg/mL"}, {"measurement": "IC50", "setting": "Zymoseptoria tritici [19]", "value": 0.94, "unit": "µg/mL"}, {"measurement": "IC50", "setting": "Zymoseptoria tritici [20]", "value": 0.09, "unit": "µg/mL"}, {"measurement": "IC50", "setting": "Zymoseptoria tritici [21]", "value": 0.08, "unit": "µg/mL"}, {"measurement": "IC50", "setting": "Zymoseptoria tritici [22]", "value": 0.13, "unit": "µg/mL"}, {"measurement": "IC50", "setting": "Zymoseptoria tritici [23]", "value": 0.08, "unit": "µg/mL"}, {"measurement": "IC50", "setting": "Zymoseptoria tritici [24]", "value": 0.03, "unit": "µg/mL"}, {"measurement": "IC50", "setting": "Zymoseptoria tritici [25]", "value": 0.03, "unit": "µg/mL"}, {"measurement": "IC50", "setting": "Zymoseptoria tritici [26]", "value": 0.25, "unit": "µg/mL"}, {"measurement": "IC50", "setting": "Zymoseptoria tritici [27]", "value": 0.11, "unit": "µg/mL"}, {"measurement": "IC50", "setting": "Zymoseptoria tritici [28]", "value": 0.08, "unit": "µg/mL"}, {"measurement": "IC50", "setting": "Zymoseptoria tritici [29]", "value": 0.09, "unit": "µg/mL"}, {"measurement": "IC50", "setting": "Zymoseptoria tritici [30]", "value": 0.14, "unit": "µg/mL"}]}
